Measured values taken from US8673353B2, “Tablet having improved elution properties” (Dainippon Sumitomo Pharma Co., Ltd, priority 2008, dated 2014).
Structures can show the parent of a compound that is named as a salt.

Assay: Particle size by laser diffraction particle size distribution meter (dry method)
Assay type: physicochemical
Conditions: HELOS&RODOS, drug substance used in the Examples
Description: The above-mentioned particle sizes (undersize D50% particle size, undersize D90% particle size etc.) are values measured using a laser diffraction particle size distribution meter (dry method). For example, when a laser diffraction particle size distribution measurement apparatus HELOS & RODOS manufactured by Sympatec GmbH is used, measurement can be performed by setting the measurement range to R3 and the indication basis of the particle amount to volume basis.
The particle size of 3/2 fumarate of compound A used in the following Examples was 0.5-3 μm for undersize D50% and 1-12 μm for undersize D90% particle size, as measured by a dry method using a laser diffraction particle size distribution measurement apparatus, HELOS&RODOS, manufactured by Sympatec GmbH.

## O=C1Nc2ccccc2C(c2ccccc2)N1C1CCN(Cc2cccc(OC(F)(F)F)c2)CC1 (single isomer, unassigned; (+)) [3/2 fumarate of compound A, (+)-3-{1-[3-(trifluoromethoxy)benzyl]piperidin-4-yl}-4-phenyl-3,4-dihydro-2(1H)-quinazolinone]
  undersize D50% particle size: 0.5-3 μm
  undersize D90% particle size: 1-12 μm
